# How the values were obtained:
# [1] = molecular target: T1, Quinolone resistance protein NorA (Staphylococcus aureus) (UniProt P0A0J7); details: 1199B
# T1 sequence (whole entry): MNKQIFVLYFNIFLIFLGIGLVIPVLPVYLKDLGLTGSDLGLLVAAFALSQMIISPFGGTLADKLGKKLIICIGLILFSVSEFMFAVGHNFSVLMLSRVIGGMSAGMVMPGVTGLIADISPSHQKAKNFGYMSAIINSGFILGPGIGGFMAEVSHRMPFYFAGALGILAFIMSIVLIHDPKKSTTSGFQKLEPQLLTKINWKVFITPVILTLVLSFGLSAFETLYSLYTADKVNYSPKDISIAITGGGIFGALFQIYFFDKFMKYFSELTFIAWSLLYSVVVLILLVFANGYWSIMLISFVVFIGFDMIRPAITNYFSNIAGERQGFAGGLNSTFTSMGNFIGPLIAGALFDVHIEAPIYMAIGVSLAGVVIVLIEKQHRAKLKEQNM
# Staphylococcus aureus [2] = experiment: microbe, parasite or virus in culture; details: 1199B, 24 h
# Description: Antimicrobial activity against Staphylococcus aureus 1199B after 24 hrs
# Staphylococcus aureus [3] = experiment: microbe, parasite or virus in culture; details: Staphylococcus aureus, 1199, 24 h
# Description: Antimicrobial activity against Staphylococcus aureus 1199 after 24 hrs
MEC [1],Compound,MIC (Staphylococcus aureus [2]),MIC (Staphylococcus aureus [3])
25 µg/mL,COC(=O)[C@H]1[C@H]2C[C@@H]3c4[nH]c5cc(OC)ccc5c4CCN3C[C@H]2C[C@@H](OC(=O)c2cc(OC)c(OC)c(OC)c2)[C@@H]1OC,,
,O=C(O)c1cn(C2CC2)c2cc(N3CCNCC3)c(F)cc2c1=O [CIPROFLOXACIN],8 µg/mL,0.25 µg/mL

# Reference: ChEMBL document CHEMBL1240453, “Substituted dihydronaphthalenes as efflux pump inhibitors of Staphylococcus aureus” (2010)
